# Results from patent publication US20210094973A1, “HETEROCYCLIC COMPOUNDS” (Hoffmann-La Roche Inc., priority 2019, published 2021).
# Molecular target: T1, MAGL (Homo sapiens, UniProt Q99685)
# T1 sequence (Q99685 1-303): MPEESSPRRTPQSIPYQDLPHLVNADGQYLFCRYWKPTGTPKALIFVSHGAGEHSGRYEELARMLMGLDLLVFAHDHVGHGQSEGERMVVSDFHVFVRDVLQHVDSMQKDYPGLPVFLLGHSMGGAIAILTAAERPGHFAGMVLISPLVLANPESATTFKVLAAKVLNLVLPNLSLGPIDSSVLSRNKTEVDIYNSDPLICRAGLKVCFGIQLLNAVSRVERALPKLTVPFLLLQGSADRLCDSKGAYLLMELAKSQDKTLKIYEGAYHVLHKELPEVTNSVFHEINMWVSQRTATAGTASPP
# Test: 2-AG assay (MAGL inhibitory activity, hydrolysis of 2-arachidonoylglycerol followed by mass spectrometry)
# Type: biochemical
# Settings: 15 min preincubation at RT, 8 μM 2-arachidonoylglycerol, 30 min at RT, arachidonic acid by MS
# Method: Compounds were profiled for MAGL inhibitory activity by determining the enzymatic activity by following the hydrolysis of the natural substrate 2-arachidonoylglycerol (2-AG) resulting in arachidonic acid, which can be followed by mass spectrometry. This assay is hereinafter abbreviated “2-AG assay”.
# The 2-AG assay was carried out in 384 well assay plates (PP, Greiner Cat #784201) in a total volume of 20 μL. Compound dilutions were made in 100% DMSO (VWR Chemicals 23500.297) in a polypropylene plate in 3-fold dilution steps to give a final concentration range in the assay from 12.5 μM to […]. 0.25 μL compound dilutions (100% DMSO) were added to 9 μL MAGL in assay buffer (50 mM TRIS (GIBCO, 15567-027), 1 mM EDTA (Fluka, 03690-100 mL), 0.01% (v/v) Tween. After shaking, the plate was incubated for 15 min at RT. To start the reaction, 10 μL 2-arachidonoylglycerol in assay buffer was added. The final concentrations in the assay was […] and 8 μM 2-arachidonoylglyerol. After shaking and 30 min incubation at RT, the reaction was quenched by the addition of 40 μL of ACN containing 4 μM of d8-arachidonic acid. The amount of arachidonic acid was traced by an online SPE system (Agilent Rapidfire) coupled to a triple quadrupole mass spectrometer (Agilent 6460). A C18 SPE cartridge (G9205A) was used in an ACN/water liquid setup. The mass spectrometer was operated in negative electrospray mode following the mass transitions 303.1→259.1 for arachidonic acid and 311.1→267.0 for d8-arachidonic acid. The activity of the compounds was calculated based on the ratio of intensities [arachidonic acid/d8-arachidonic acid].
row,SMILES,IC50 [nM]
1,"O=C1CO[C@H]2CCN(C(=O)N3CC(c4ccc(C5CCOC5)cc4)C3)C[C@H]2N1 (single isomer, unassigned) [Example 1, (4aR,8aS)-6-[3-[4-[(3R or S)-Tetrahydrofuran-3-yl]phenyl]azetidine-1-carbonyl]-4,4a,5,7,8,8a-hexahydropyrido[4,3-b][1,4]oxazin-3-one]",33.1
2,"CC1C(OCc2c(F)cccc2C(F)(F)F)CN1C(=O)N1CC[C@@H]2OCC(=O)N[C@@H]2C1 (single isomer, unassigned) [Example 28]",342
3,"CC1C(OCc2c(F)cccc2C(F)(F)F)CN1C(=O)N1CC[C@@H]2OCC(=O)N[C@@H]2C1 (single isomer, unassigned) [Example 29]",406
4,"O=C1CO[C@H]2CCN(C(=O)N3CC(c4ccc(OC5CC(F)(F)C5)cc4)C3)C[C@H]2N1 [Example 3, (4aR,8aS)-6-[3-[4-(3,3-Difluorocyclobutoxy)phenyl]azetidine-1-carbonyl]-4,4a,5,7,8,8a-hexahydropyrido[4,3-b][1,4]oxazin-3-one]",4.1
5,"O=C1CO[C@H]2CCN(C(=O)N3CC(c4nsc(-c5ccc(Cl)cc5Cl)n4)C3)C[C@H]2N1 [Example 7, (4aR,8aS)-6-[3-[5-(2,4-Dichlorophenyl)-1,2,4-thiadiazol-3-yl]azetidine-1-carbonyl]-4,4a,5,7,8,8a-hexahydropyrido[4,3-b][1,4]oxazin-3-one]",9.1
6,"O=C1CO[C@H]2CCN(C(=O)N3CC(c4nc(-c5ccc(Cl)cc5C(F)(F)F)no4)C3)C[C@H]2N1 [Example 9, (4aR,8aS)-6-[3-[3-[4-Chloro-2-(trifluoromethyl)phenyl]-1,2,4-oxadiazol-5-yl]azetidine-1-carbonyl]-4,4a,5,7,8,8a-hexahydropyrido[4,3-b][1,4]oxazin-3-one]",23.5
7,"CC1(C)CCc2cc(C3CN(C(=O)N4CC[C@@H]5OCC(=O)N[C@@H]5C4)C3)ccc2O1 [Example 10, (4aR,8aS)-6-(3-(2,2-Dimethylchroman-6-yl)azetidine-1-carbonyl)hexahydro-2H-pyrido[4,3-b][1,4]oxazin-3(4H)-one]",6
8,"CC(C)COc1ccc(C2CN(C(=O)N3CC[C@@H]4OCC(=O)N[C@@H]4C3)C2)cc1 [Example 11, (4aR,8aS)-6-(3-(4-Isobutoxyphenyl)azetidine-1-carbonyl)hexahydro-2H-pyrido[4,3-b][1,4]oxazin-3(4H)-one]",1.5
9,"CC1(C)CCOc2ccc(C3CN(C(=O)N4CC[C@@H]5OCC(=O)N[C@@H]5C4)C3)cc21 [Example 14, (4aR,8aS)-6-(3-(4,4-Dimethylchroman-6-yl)azetidine-1-carbonyl)hexahydro-2H-pyrido[4,3-b][1,4]oxazin-3(4H)-one]",26.4
10,"O=C1CO[C@H]2CCN(C(=O)N3CC(c4ccc(OCC5CC5)cc4)C3)C[C@H]2N1 [Example 15, (4aR,8aS)-6-(3-(4-(Cyclopropylmethoxy)phenyl)azetidine-1-carbonyl)hexahydro-2H-pyrido[4,3-b][1,4]oxazin-3(4H)-one]",8.7
11,"O=C1CO[C@H]2CCN(C(=O)N3CC(c4nc(-c5ccc(Cl)cc5Cl)no4)C3)C[C@H]2N1 [Example 16, (4aR,8aS)-6-[3-[3-(2,4-Dichlorophenyl)-1,2,4-oxadiazol-5-yl]azetidine-1-carbonyl]-4,4a,5,7,8,8a-hexahydropyrido[4,3-b][1,4]oxazin-3-one]",24.5
12,"O=C1CO[C@H]2CCN(C(=O)N3CC(c4noc(-c5ccc(Cl)cc5Cl)n4)C3)C[C@H]2N1 [Example 18, (4aR,8aS)-6-(3-(5-(2,4-Dichlorophenyl)-1,2,4-oxadiazol-3-yl)azetidine-1-carbonyl)hexahydro-2H-pyrido[4,3-b][1,4]oxazin-3(4H)-one]",39.2
13,"O=C1CO[C@H]2CCN(C(=O)N3CCC(OCc4ccc(C(F)(F)F)cc4)CC3)C[C@H]2N1 [Example 24, (4aR,8aS)-6-(4-((4-(Trifluoromethyl)benzyl)oxy)piperidine-1-carbonyl)hexahydro-2H-pyrido[4,3-b][1,4]oxazin-3(4H)-one]",62.1

# More lines, in order of falling IC50, values ahead:
row,IC50 [nM],SMILES
1,168,"Cn1ncc2cc(C3CN(C(=O)N4CC[C@@H]5OCC(=O)N[C@@H]5C4)C3)ccc21 [Example 17, (4aR,8aS)-6-(3-(1-Methyl-1H-indazol-5-yl)azetidine-1-carbonyl)hexahydro-2H-pyrido[4,3-b][1,4]oxazin-3(4H)-one]"
2,147,"O=C1CO[C@H]2CCN(C(=O)N3CCC(c4ccn(-c5ccc(F)cc5)n4)CC3)C[C@H]2N1 [Example 20, (4aR,8aS)-6-(4-(1-(4-Fluorophenyl)-1H-pyrazol-3-yl)piperidine-1-carbonyl)hexahydro-2H-pyrido[4,3-b][1,4]oxazin-3(4H)-one]"
3,119,"Cc1c(CC2CCN(C(=O)N3CC[C@@H]4OCC(=O)N[C@@H]4C3)CC2)cncc1C1CC1 [Example 23, (4aR,8aS)-6-(4-((5-Cyclopropyl-4-methylpyridin-3-yl)methyl)piperidine-1-carbonyl)hexahydro-2H-pyrido[4,3-b][1,4]oxazin-3(4H)-one]"
4,44.1,"O=C1CO[C@H]2CCN(C(=O)N3CC(c4cccc(OC(F)(F)F)c4)C3)C[C@H]2N1 [Example 19, (4aR,8aS)-6-(3-(3-(Trifluoromethoxy)phenyl)azetidine-1-carbonyl)hexahydro-2H-pyrido[4,3-b][1,4]oxazin-3(4H)-one]"
5,42,"O=C1CO[C@H]2CCN(C(=O)N3CC(c4ccc(C5CCOC5)cc4)C3)C[C@H]2N1 (single isomer, unassigned) [Example 2, (4aR,8aS)-6-[3-[4-[(3S or R)-Tetrahydrofuran-3-yl]phenyl]azetidine-1-carbonyl]-4,4a,5,7,8,8a-hexahydropyrido[4,3-b][1,4]oxazin-3-one]"
6,38.8,"O=C1CO[C@H]2CCN(C(=O)N3CC(c4cn(-c5ccc(Cl)cc5Cl)cn4)C3)C[C@H]2N1 [Example 8, (4aR,8aS)-6-[3-[1-(2,4-Dichlorophenyl)imidazol-4-yl]azetidine-1-carbonyl]-4,4a,5,7,8,8a-hexahydropyrido[4,3-b][1,4]oxazin-3-one]"
7,27.8,"O=C1CO[C@H]2CCN(C(=O)N3CC(OCc4c(Cl)cccc4Cl)C3)C[C@H]2N1 [Example 21, (4aR,8aS)-6-(3-((2,6-Dichlorobenzyl)oxy)azetidine-1-carbonyl)hexahydro-2H-pyrido[4,3-b][1,4]oxazin-3(4H)-one]"
8,18.8,"CC1C(OCc2c(F)cccc2C(F)(F)F)CN1C(=O)N1CC[C@@H]2OCC(=O)N[C@@H]2C1 (single isomer, unassigned) [Example 27]"
9,13.4,"O=C1CO[C@H]2CCN(C(=O)N3CC(OCc4cc(Cl)cc(Cl)c4)C3)C[C@H]2N1 [Example 22, (4aR,8aS)-6-(3-((3,5-Dichlorobenzyl)oxy)azetidine-1-carbonyl)hexahydro-2H-pyrido[4,3-b][1,4]oxazin-3(4H)-one]"
10,7.1,"CC(C)Oc1ccc(C2CN(C(=O)N3CC[C@@H]4OCC(=O)N[C@@H]4C3)C2)cc1 [Example 4, (4aR,8aS)-6-[3-(4-Isopropoxyphenyl)azetidine-1-carbonyl]-4,4a,5,7,8,8a-hexahydropyrido[4,3-b][1,4]oxazin-3-one]"
11,6,"O=C1CO[C@H]2CCN(C(=O)N3CC(c4ccc(C5CCOCC5)cc4)C3)C[C@H]2N1 [Example 5, (4aR,8aS)-6-[3-(4-Tetrahydropyran-4-ylphenyl)azetidine-1-carbonyl]-4,4a,5,7,8,8a-hexahydropyrido[4,3-b][1,4]oxazin-3-one]"
12,2.9,"O=C1CO[C@H]2CCN(C(=O)N3CC(c4ccc(C5CC(F)(F)C5)cc4)C3)C[C@H]2N1 [Example 6, (4aR,8aS)-6-[3-[4-(3,3-Difluorocyclobutyl)phenyl]azetidine-1-carbonyl]-4,4a,5,7,8,8a-hexahydropyrido[4,3-b][1,4]oxazin-3-one]"
13,0.6,"O=C1CO[C@H]2CCN(C(=O)N3CC(c4ccc(OC5CCCC5)cc4)C3)C[C@H]2N1 [Example 13, (4aR,8aS)-6-(3-(4-(Cyclopentyloxy)phenyl)azetidine-1-carbonyl)hexahydro-2H-pyrido[4,3-b][1,4]oxazin-3(4H)-one]"
14,0.3,"CC(C)(Oc1ccc(C2CN(C(=O)N3CC[C@@H]4OCC(=O)N[C@@H]4C3)C2)cc1)C(F)(F)F [Example 12, (4aR,8aS)-6-[3-[4-(2,2,2-Trifluoro-1,1-dimethyl-ethoxy)phenyl]azetidine-1-carbonyl]-4,4a,5,7,8,8a-hexahydropyrido[4,3-b][1,4]oxazin-3-one]"
